Assay results: ChEMBL document CHEMBL3045539, “Synthesis, DNA affinity, and antimicrobial activity of 4-substituted phenyl-2,2-bichalcophenes and aza-analogues” (Med Chem Res, 2012)
In brackets after ≈: the same amount, converted by molar mass. Activity calls are given as the source filed them. The rule behind the calls is not given here.

test system: Bacillus subtilis; assay: Antimicrobial activity against Bacillus subtilis after 24 hr by CLSI liquid dilution method; format: functional; settings: not given

MIC [µg/mL]	SMILES
15 (≈ 59.5 µM)	N=C(N)c1ccc(-c2ccc(-c3ccco3)o2)cc1 [4-(2,2'-BIFURAN-5-YL)BENZAMIDINE]
2.5 (≈ 10.6 µM)	N#Cc1ccc(-c2ccc(-c3ccco3)o2)cc1 [4-(2,2'-BIFURAN-5-YL)BENZONITRILE]
20 (≈ 74.8 µM)	N#Cc1ccc(-c2ccc(-c3cccs3)s2)cc1 [4-(2,2'-BITHIOPHEN-5-YL)BENZONITRILE]
15 (≈ 52.7 µM)	N=C(N)c1ccc(-c2ccc(-c3cccs3)s2)cc1 [4-(2,2'-BITHIOPHENE-5-YL)BENZAMIDINE]
10 (≈ 37.3 µM)	N=C(N)c1ccc(-c2ccc(-c3cccs3)o2)cc1 [4-[5-(THIOPHEN-2-YL)FURAN-2-YL]BENZAMIDINE]
10 (≈ 39.8 µM)	N#Cc1ccc(-c2ccc(-c3cccs3)o2)cc1 [4-[5-(THIOPHEN-2-YL)FURAN-2-YL]BENZONITRILE]

test system: not listed separately; assay: Antioxidant activity assessed as DPPH scavenging activity at 50 ug after 30 min by spectrophotometry; format: functional; settings: not given

SMILES	Activity [%]
N#Cc1ccc(-c2ccc(-c3cccs3)s2)cc1 [4-(2,2'-BITHIOPHEN-5-YL)BENZONITRILE]	61.8
N=C(N)c1ccc(-c2ccc(-c3cccs3)s2)cc1 [4-(2,2'-BITHIOPHENE-5-YL)BENZAMIDINE]	51.9
N=C(N)c1ccc(-c2ccc(-c3cccs3)o2)cc1 [4-[5-(THIOPHEN-2-YL)FURAN-2-YL]BENZAMIDINE]	57.7
N#Cc1ccc(-c2ccc(-c3cccs3)o2)cc1 [4-[5-(THIOPHEN-2-YL)FURAN-2-YL]BENZONITRILE]	53.1

test system: Escherichia coli; assay: Induction of Escherichia coli AB1157 DNA degradation after 1 hr by agarose gel electrophoresis; settings: not given

Activity	SMILES
Active	N=C(N)c1ccc(-c2ccc(-c3ccco3)o2)cc1 [4-(2,2'-BIFURAN-5-YL)BENZAMIDINE]
Active	N#Cc1ccc(-c2ccc(-c3ccco3)o2)cc1 [4-(2,2'-BIFURAN-5-YL)BENZONITRILE]
Active	N#Cc1ccc(-c2ccc(-c3cccs3)s2)cc1 [4-(2,2'-BITHIOPHEN-5-YL)BENZONITRILE]
Active	N=C(N)c1ccc(-c2ccc(-c3cccs3)s2)cc1 [4-(2,2'-BITHIOPHENE-5-YL)BENZAMIDINE]
Active	N#Cc1ccc(-c2ccc(-c3cccs3)o2)cc1 [4-[5-(THIOPHEN-2-YL)FURAN-2-YL]BENZONITRILE]

test system: Staphylococcus aureus; assay: Antimicrobial activity against Staphylococcus aureus after 24 hr by CLSI liquid dilution method; format: functional; settings: not given

MIC [µg/mL]	SMILES
20 (≈ 79.3 µM)	N=C(N)c1ccc(-c2ccc(-c3ccco3)o2)cc1 [4-(2,2'-BIFURAN-5-YL)BENZAMIDINE]
2 (≈ 8.5 µM)	N#Cc1ccc(-c2ccc(-c3ccco3)o2)cc1 [4-(2,2'-BIFURAN-5-YL)BENZONITRILE]
20 (≈ 74.8 µM)	N#Cc1ccc(-c2ccc(-c3cccs3)s2)cc1 [4-(2,2'-BITHIOPHEN-5-YL)BENZONITRILE]
15 (≈ 52.7 µM)	N=C(N)c1ccc(-c2ccc(-c3cccs3)s2)cc1 [4-(2,2'-BITHIOPHENE-5-YL)BENZAMIDINE]
10 (≈ 37.3 µM)	N=C(N)c1ccc(-c2ccc(-c3cccs3)o2)cc1 [4-[5-(THIOPHEN-2-YL)FURAN-2-YL]BENZAMIDINE]
15 (≈ 59.7 µM)	N#Cc1ccc(-c2ccc(-c3cccs3)o2)cc1 [4-[5-(THIOPHEN-2-YL)FURAN-2-YL]BENZONITRILE]

test system: Bacillus subtilis; assay: Antimicrobial activity against Bacillus subtilis at 100 ug after 24 hr by cup diffusion technique; format: functional; settings: read-out: DIZ

SMILES	zone of inhibition at 100 µg/disc [mm]
N=C(N)c1ccc(-c2ccc(-c3ccco3)o2)cc1 [4-(2,2'-BIFURAN-5-YL)BENZAMIDINE]	9
N#Cc1ccc(-c2ccc(-c3ccco3)o2)cc1 [4-(2,2'-BIFURAN-5-YL)BENZONITRILE]	19
N#Cc1ccc(-c2ccc(-c3cccs3)s2)cc1 [4-(2,2'-BITHIOPHEN-5-YL)BENZONITRILE]	12
N=C(N)c1ccc(-c2ccc(-c3cccs3)s2)cc1 [4-(2,2'-BITHIOPHENE-5-YL)BENZAMIDINE]	9
N=C(N)c1ccc(-c2ccc(-c3cccs3)o2)cc1 [4-[5-(THIOPHEN-2-YL)FURAN-2-YL]BENZAMIDINE]	11
N#Cc1ccc(-c2ccc(-c3cccs3)o2)cc1 [4-[5-(THIOPHEN-2-YL)FURAN-2-YL]BENZONITRILE]	14

test system: Escherichia coli; assay: Antimicrobial activity against Escherichia coli at 100 ug after 24 hr by cup diffusion technique; format: functional; settings: read-out: DIZ

SMILES	zone of inhibition at 100 µg/disc [mm]
N=C(N)c1ccc(-c2ccc(-c3ccco3)o2)cc1 [4-(2,2'-BIFURAN-5-YL)BENZAMIDINE]	6
N#Cc1ccc(-c2ccc(-c3ccco3)o2)cc1 [4-(2,2'-BIFURAN-5-YL)BENZONITRILE]	18
N#Cc1ccc(-c2ccc(-c3cccs3)s2)cc1 [4-(2,2'-BITHIOPHEN-5-YL)BENZONITRILE]	10
N=C(N)c1ccc(-c2ccc(-c3cccs3)s2)cc1 [4-(2,2'-BITHIOPHENE-5-YL)BENZAMIDINE]	11
N=C(N)c1ccc(-c2ccc(-c3cccs3)o2)cc1 [4-[5-(THIOPHEN-2-YL)FURAN-2-YL]BENZAMIDINE]	9
N#Cc1ccc(-c2ccc(-c3cccs3)o2)cc1 [4-[5-(THIOPHEN-2-YL)FURAN-2-YL]BENZONITRILE]	12

molecular target: Albumin (Bos taurus, UniProt P02769); assay: Induction of Bos taurus (bovine) serum albumin degradation after 1 hr by SDS-PAGE analysis; settings: cattle
Sequence (P02769 whole entry): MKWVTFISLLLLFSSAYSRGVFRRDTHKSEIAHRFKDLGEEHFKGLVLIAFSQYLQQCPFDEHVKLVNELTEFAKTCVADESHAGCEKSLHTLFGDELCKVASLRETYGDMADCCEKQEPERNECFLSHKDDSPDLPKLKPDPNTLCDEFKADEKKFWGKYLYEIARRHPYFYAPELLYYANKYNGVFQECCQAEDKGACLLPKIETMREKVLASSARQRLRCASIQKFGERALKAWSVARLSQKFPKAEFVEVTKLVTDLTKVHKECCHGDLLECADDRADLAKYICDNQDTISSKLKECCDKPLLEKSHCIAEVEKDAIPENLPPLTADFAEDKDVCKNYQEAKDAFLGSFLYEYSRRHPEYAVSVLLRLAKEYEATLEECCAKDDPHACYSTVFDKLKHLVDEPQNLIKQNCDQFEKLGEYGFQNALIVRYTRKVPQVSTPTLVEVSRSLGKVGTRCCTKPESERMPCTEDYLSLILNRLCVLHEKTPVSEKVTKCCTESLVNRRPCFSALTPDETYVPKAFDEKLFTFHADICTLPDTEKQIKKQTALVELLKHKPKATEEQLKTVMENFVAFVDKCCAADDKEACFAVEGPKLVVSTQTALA

Activity	SMILES
Active	N=C(N)c1ccc(-c2ccc(-c3ccco3)o2)cc1 [4-(2,2'-BIFURAN-5-YL)BENZAMIDINE]
Active	N#Cc1ccc(-c2ccc(-c3ccco3)o2)cc1 [4-(2,2'-BIFURAN-5-YL)BENZONITRILE]
Active	N#Cc1ccc(-c2ccc(-c3cccs3)s2)cc1 [4-(2,2'-BITHIOPHEN-5-YL)BENZONITRILE]
Not Active	N=C(N)c1ccc(-c2ccc(-c3cccs3)s2)cc1 [4-(2,2'-BITHIOPHENE-5-YL)BENZAMIDINE]
Active	N=C(N)c1ccc(-c2ccc(-c3cccs3)o2)cc1 [4-[5-(THIOPHEN-2-YL)FURAN-2-YL]BENZAMIDINE]
Not Active	N#Cc1ccc(-c2ccc(-c3cccs3)o2)cc1 [4-[5-(THIOPHEN-2-YL)FURAN-2-YL]BENZONITRILE]

test system: Escherichia coli; assay: Antimicrobial activity against Escherichia coli after 24 hr by CLSI liquid dilution method; format: functional; settings: not given

MIC [µg/mL]	SMILES
20 (≈ 79.3 µM)	N=C(N)c1ccc(-c2ccc(-c3ccco3)o2)cc1 [4-(2,2'-BIFURAN-5-YL)BENZAMIDINE]
2.5 (≈ 10.6 µM)	N#Cc1ccc(-c2ccc(-c3ccco3)o2)cc1 [4-(2,2'-BIFURAN-5-YL)BENZONITRILE]
15 (≈ 56.1 µM)	N#Cc1ccc(-c2ccc(-c3cccs3)s2)cc1 [4-(2,2'-BITHIOPHEN-5-YL)BENZONITRILE]
10 (≈ 35.2 µM)	N=C(N)c1ccc(-c2ccc(-c3cccs3)s2)cc1 [4-(2,2'-BITHIOPHENE-5-YL)BENZAMIDINE]
15 (≈ 55.9 µM)	N=C(N)c1ccc(-c2ccc(-c3cccs3)o2)cc1 [4-[5-(THIOPHEN-2-YL)FURAN-2-YL]BENZAMIDINE]
15 (≈ 59.7 µM)	N#Cc1ccc(-c2ccc(-c3cccs3)o2)cc1 [4-[5-(THIOPHEN-2-YL)FURAN-2-YL]BENZONITRILE]

test system: Saccharomyces cerevisiae; assay: Antimicrobial activity against Saccharomyces cerevisiae after 24 hr by CLSI liquid dilution method; format: functional; settings: not given

MIC [µg/mL]	SMILES
15 (≈ 59.5 µM)	N=C(N)c1ccc(-c2ccc(-c3ccco3)o2)cc1 [4-(2,2'-BIFURAN-5-YL)BENZAMIDINE]
2.5 (≈ 10.6 µM)	N#Cc1ccc(-c2ccc(-c3ccco3)o2)cc1 [4-(2,2'-BIFURAN-5-YL)BENZONITRILE]
10 (≈ 37.4 µM)	N#Cc1ccc(-c2ccc(-c3cccs3)s2)cc1 [4-(2,2'-BITHIOPHEN-5-YL)BENZONITRILE]
10 (≈ 35.2 µM)	N=C(N)c1ccc(-c2ccc(-c3cccs3)s2)cc1 [4-(2,2'-BITHIOPHENE-5-YL)BENZAMIDINE]
7.5 (≈ 27.9 µM)	N=C(N)c1ccc(-c2ccc(-c3cccs3)o2)cc1 [4-[5-(THIOPHEN-2-YL)FURAN-2-YL]BENZAMIDINE]
10 (≈ 39.8 µM)	N#Cc1ccc(-c2ccc(-c3cccs3)o2)cc1 [4-[5-(THIOPHEN-2-YL)FURAN-2-YL]BENZONITRILE]

test system: Pseudomonas aeruginosa; assay: Antimicrobial activity against Pseudomonas aeruginosa after 24 hr by cup diffusion technique; format: functional; settings: not given

SMILES	diameter of the inhibition zone (DIZ) [mm]
N=C(N)c1ccc(-c2ccc(-c3ccco3)o2)cc1 [4-(2,2'-BIFURAN-5-YL)BENZAMIDINE]	10
N#Cc1ccc(-c2ccc(-c3ccco3)o2)cc1 [4-(2,2'-BIFURAN-5-YL)BENZONITRILE]	16
N#Cc1ccc(-c2ccc(-c3cccs3)s2)cc1 [4-(2,2'-BITHIOPHEN-5-YL)BENZONITRILE]	12
N=C(N)c1ccc(-c2ccc(-c3cccs3)s2)cc1 [4-(2,2'-BITHIOPHENE-5-YL)BENZAMIDINE]	8
N=C(N)c1ccc(-c2ccc(-c3cccs3)o2)cc1 [4-[5-(THIOPHEN-2-YL)FURAN-2-YL]BENZAMIDINE]	9
N#Cc1ccc(-c2ccc(-c3cccs3)o2)cc1 [4-[5-(THIOPHEN-2-YL)FURAN-2-YL]BENZONITRILE]	16

test system: Staphylococcus aureus; assay: Antimicrobial activity against Staphylococcus aureus at 100 ug after 24 hr by cup diffusion technique; format: functional; settings: read-out: DIZ

SMILES	zone of inhibition at 100 µg/disc [mm]
N=C(N)c1ccc(-c2ccc(-c3ccco3)o2)cc1 [4-(2,2'-BIFURAN-5-YL)BENZAMIDINE]	8
N#Cc1ccc(-c2ccc(-c3ccco3)o2)cc1 [4-(2,2'-BIFURAN-5-YL)BENZONITRILE]	18
N#Cc1ccc(-c2ccc(-c3cccs3)s2)cc1 [4-(2,2'-BITHIOPHEN-5-YL)BENZONITRILE]	9
N=C(N)c1ccc(-c2ccc(-c3cccs3)s2)cc1 [4-(2,2'-BITHIOPHENE-5-YL)BENZAMIDINE]	8
N=C(N)c1ccc(-c2ccc(-c3cccs3)o2)cc1 [4-[5-(THIOPHEN-2-YL)FURAN-2-YL]BENZAMIDINE]	10
N#Cc1ccc(-c2ccc(-c3cccs3)o2)cc1 [4-[5-(THIOPHEN-2-YL)FURAN-2-YL]BENZONITRILE]	12

test system: not listed separately; assay: Antioxidant activity assessed as SOD-like activity measuring inhibition of superoxide radical production at 50 ug after 30 min by NBT reduction assay; format: functional; settings: not given

SMILES	inhibition [%]
N=C(N)c1ccc(-c2ccc(-c3ccco3)o2)cc1 [4-(2,2'-BIFURAN-5-YL)BENZAMIDINE]	39.7
N#Cc1ccc(-c2ccc(-c3ccco3)o2)cc1 [4-(2,2'-BIFURAN-5-YL)BENZONITRILE]	42.4
N#Cc1ccc(-c2ccc(-c3cccs3)s2)cc1 [4-(2,2'-BITHIOPHEN-5-YL)BENZONITRILE]	57.8
N=C(N)c1ccc(-c2ccc(-c3cccs3)s2)cc1 [4-(2,2'-BITHIOPHENE-5-YL)BENZAMIDINE]	48.1
N=C(N)c1ccc(-c2ccc(-c3cccs3)o2)cc1 [4-[5-(THIOPHEN-2-YL)FURAN-2-YL]BENZAMIDINE]	53.7
N#Cc1ccc(-c2ccc(-c3cccs3)o2)cc1 [4-[5-(THIOPHEN-2-YL)FURAN-2-YL]BENZONITRILE]	46.9

test system: Saccharomyces cerevisiae; assay: Antimicrobial activity against Saccharomyces cerevisiae at 100 ug after 24 hr by cup diffusion technique; format: functional; settings: read-out: DIZ

SMILES	zone of inhibition at 100 µg/disc [mm]
N=C(N)c1ccc(-c2ccc(-c3ccco3)o2)cc1 [4-(2,2'-BIFURAN-5-YL)BENZAMIDINE]	11
N#Cc1ccc(-c2ccc(-c3ccco3)o2)cc1 [4-(2,2'-BIFURAN-5-YL)BENZONITRILE]	16
N#Cc1ccc(-c2ccc(-c3cccs3)s2)cc1 [4-(2,2'-BITHIOPHEN-5-YL)BENZONITRILE]	13
N=C(N)c1ccc(-c2ccc(-c3cccs3)s2)cc1 [4-(2,2'-BITHIOPHENE-5-YL)BENZAMIDINE]	12
N=C(N)c1ccc(-c2ccc(-c3cccs3)o2)cc1 [4-[5-(THIOPHEN-2-YL)FURAN-2-YL]BENZAMIDINE]	12
N#Cc1ccc(-c2ccc(-c3cccs3)o2)cc1 [4-[5-(THIOPHEN-2-YL)FURAN-2-YL]BENZONITRILE]	15

test system: Pseudomonas aeruginosa; assay: Antimicrobial activity against Pseudomonas aeruginosa after 24 hr by CLSI liquid dilution method; format: functional; settings: not given

MIC [µg/mL]	SMILES
15 (≈ 59.5 µM)	N=C(N)c1ccc(-c2ccc(-c3ccco3)o2)cc1 [4-(2,2'-BIFURAN-5-YL)BENZAMIDINE]
5 (≈ 21.3 µM)	N#Cc1ccc(-c2ccc(-c3ccco3)o2)cc1 [4-(2,2'-BIFURAN-5-YL)BENZONITRILE]
10 (≈ 37.4 µM)	N#Cc1ccc(-c2ccc(-c3cccs3)s2)cc1 [4-(2,2'-BITHIOPHEN-5-YL)BENZONITRILE]
20 (≈ 70.3 µM)	N=C(N)c1ccc(-c2ccc(-c3cccs3)s2)cc1 [4-(2,2'-BITHIOPHENE-5-YL)BENZAMIDINE]
15 (≈ 55.9 µM)	N=C(N)c1ccc(-c2ccc(-c3cccs3)o2)cc1 [4-[5-(THIOPHEN-2-YL)FURAN-2-YL]BENZAMIDINE]
15 (≈ 59.7 µM)	N#Cc1ccc(-c2ccc(-c3cccs3)o2)cc1 [4-[5-(THIOPHEN-2-YL)FURAN-2-YL]BENZONITRILE]
